Measurements published in article PMC9462851, “Redox-controlled reorganization and flavin strain within the ribonucleotide reductase R2b–NrdI complex monitored by serial femtosecond crystallography” (eLife, 2022).

Legend:
[1] = target: T1, BcR2b–NrdI complex (BcR2bMnMn–NrdI) (Bacillus cereus, UniProt Q81G55+Q81G57); experiment: serial femtosecond crystallography (XFEL), […] Å; format: binding; details: Mn(II)/Mn(II) R2b, room temperature
T1 construct: Untagged purification from E. coli BL21(DE3), plasmids pET22b-BcnrdI and pET22b-Bcr2b; NrdI 118 residues, 13,449 Da; R2b 322 residues, 37,017 Da, produced metal-free then Mn(II)-loaded; 1:1 complex, dimer of heterodimers
T1 sequence (Q81G57 1-119): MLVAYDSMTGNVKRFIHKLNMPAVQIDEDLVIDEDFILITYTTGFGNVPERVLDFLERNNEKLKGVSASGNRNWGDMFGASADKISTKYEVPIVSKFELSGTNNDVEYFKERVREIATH
T1 sequence (Q81G55 1-322): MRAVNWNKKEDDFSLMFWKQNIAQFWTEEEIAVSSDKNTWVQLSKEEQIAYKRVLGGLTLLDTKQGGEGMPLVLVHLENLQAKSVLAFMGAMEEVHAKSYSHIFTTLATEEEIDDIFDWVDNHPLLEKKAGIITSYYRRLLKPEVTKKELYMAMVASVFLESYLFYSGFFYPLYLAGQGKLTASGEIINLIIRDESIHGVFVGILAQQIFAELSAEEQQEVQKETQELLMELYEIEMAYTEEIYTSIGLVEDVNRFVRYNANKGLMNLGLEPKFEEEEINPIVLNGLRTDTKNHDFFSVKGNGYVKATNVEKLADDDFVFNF

[2] = target: Bacillus cereus ribonucleotide reductase class Ib R2 subunit (R2b), di-manganese form (Bacillus cereus); experiment: crystal structure; serial femtosecond crystallography at an XFEL (LCLS MFX), room temperature, 2.0 Å; complex reconstituted in vitro by mixing 0.25 mM BcR2b (with 12 equivalents Mn(II)Cl2) and 0.25 mM BcNrdI in 50 mM Tris-HCl pH 7.5, 20°C; batch crystals with NrdI oxidized (7Z3D) or reduced in the crystal with dithionite to the hydroquinone (7Z3E)

Cc1cc2nc3c(=O)[nH]c(=O)nc-3n(C[C@H](O)[C@H](O)[C@H](O)COP(=O)(O)O)c2cc1C [FMNox, flavin mononucleotide]
serial femtosecond crystallography (XFEL), 2.0 Å ([1]; oxidized crystals grown aerobically, noncovalent FMN in NrdI at the R2b interface (R2b Phe17, Gln20)): The structure from these crystals is later referred to as BcR2bMnMn–NrdIox (PDB ID: 7Z3D)

Cc1cc2c(cc1C)N(C[C@H](O)[C@H](O)[C@H](O)COP(=O)(O)O)c1[nH]c(=O)[nH]c(=O)c1N2 [FMNhq, hydroquinone flavin mononucleotide]
serial femtosecond crystallography (XFEL), 2.0 Å ([1]; anaerobic, crystals reduced with sodium dithionite, noncovalent FMN in NrdI at the R2b interface): The corresponding structure is denoted BcR2bMnMn–NrdIhq (PDB ID: 7Z3E)

B1: Bacillus cereus NrdI (flavoprotein with bound flavin mononucleotide) (natural protein)
chain: MLVAYDSMTGNVKRFIHKLNMPAVQIDEDLVIDEDFILITYTTGFGNVPERVLDFLERNNEKLKGVSASGNRNWGDMFGASADKISTKYEVPIVSKFELSGTNNDVEYFKERVREIAT
stoichiometry N [2]: 1
